US9072698B2, “Method for screening anti-cancer compounds inhibiting function of TM4SF5 and anti-cancer composition containing chalcone compounds” (Seoul National University Industry Foundation, priority 2006, dated 2015)
≈ marks a conversion by molar mass, not a printed value.

What was measured:
Format in all cases: cell-based
[1] = system: PC-3 (prostate adenocarcinoma); experiment: In vitro cytotoxicity, sulforhodamine B (SRB) method, PC-3; conditions: Homo sapiens; PC-3, SRB method; read-out: cytotoxicity (ED50) PC-3
Protocol: (§1) The chalcone derivatives of the present invention were evaluated for in vitro cytotoxicity against human carcinoma cell lines using a sulforhodamine B (SRB) method, which was developed in 1989 by the National Cancer Institute (NCI), USA.
(§2) HCT15 (colon adenocarcinoma; ATCC CCL-225), PC-3 (prostate adenocarcinoma; ATCC CRL-1435), and A-549 (lung carcinoma; ATCC CCL-185) cell lines were used. All of these carcinoma cells were sub-cultured at the Korean Research Institute of Bioscience and Biotechnology (KRIBB), Korea.
(§3) The human carcinoma cell lines were cultured in 10% FCS-containing RPMI 1640 medium (Gibco Cat. No. 31800) in an incubator at 37° C. under 5% CO2, and sub-cultured twice per week.
(§4) Cells were detached from the attached surface using 0.25% Trypsin (Sigma) and 3 mM CDTA (1,2-cyclohexane diamine tetraacetic acid, Sigma) in phosphate buffered saline (PBS, Sigma).
(§5) Compounds to be tested (the chalcone derivatives set forth in Table 1) were dissolved in a small amount of dimethylsulfoxide (DMSO, Sigma), and diluted in culture medium to a desired concentration. The final concentration of DMSO was less than 0.5%. The diluted compounds (final concentration: 30, 10, 3, 1 and 0.3 μg/ml) were sterilized through a 0.22-μm microfilter (Millipore). The cytotoxicity of the compounds to human carcinoma cell lines was assessed using a typical SRB method.

[2] = system: A-549 (lung carcinoma); experiment: In vitro cytotoxicity, sulforhodamine B (SRB) method, A-549; conditions: Homo sapiens, A549; A-549, SRB method; read-out: cytotoxicity (ED50) A-549
Protocol: as §1, §2, §3, §4, §5

[3] = system: HCT15 (colon adenocarcinoma); experiment: In vitro cytotoxicity, sulforhodamine B (SRB) method, HCT15; conditions: Homo sapiens; HCT-15, SRB method; read-out: cytotoxicity (ED50) HCT-15
Protocol: as §1, §2, §3, §4, §5

Row | SMILES | IC50 [1] [µg/mL] | IC50 [2] [µg/mL] | IC50 [3] [µg/mL]
1 | O=C(/C=C/c1cccc(O)c1O)c1ccccc1NS(=O)(=O)c1ccc(O)cc1 [Compound 57, 2′-(p-hydroxybenzenesulfonylamino)-2,3-dihydroxychalcone] | 10 (≈ 24.3 µM) | 7 (≈ 17 µM) | 9 (≈ 21.9 µM)
2 | Cc1ccc(S(=O)(=O)Nc2ccc(C(=O)/C=C/c3cccc(O)c3O)cc2)cc1 [Compound 43, 4′-(p-toluenesulfonylamino)-2,3-dihydroxychalcone] | 14 (≈ 34.2 µM) | 18 (≈ 44 µM) | 12 (≈ 29.3 µM)
3 | O=C(/C=C/c1ccc(O)cc1O)c1ccccc1NS(=O)(=O)c1cccc(O)c1 [Compound 70, 2′-(m-hydroxybenzenesulfonylamino)-2,4-dihydroxychalcone] | 11 (≈ 26.7 µM) | 9 (≈ 21.9 µM) | 8 (≈ 19.4 µM)
4 | O=C(/C=C/c1ccc(O)cc1)c1ccc(NS(=O)(=O)c2ccccc2F)cc1 [Compound 26, 4′-(o-fluorobenzensulfonylamino)-4-hydroxychalcone] | 28 (≈ 70.5 µM) | 20 (≈ 50.3 µM) | 22 (≈ 55.4 µM)
5 | O=C(/C=C/c1ccc(O)cc1O)c1cccc(NS(=O)(=O)c2cccc(O)c2)c1 [Compound 66, 3′-(m-hydroxybenzenesulfonylamino)-2,4-dihydroxychalcone] | 13 (≈ 31.6 µM) | 11 (≈ 26.7 µM) | 11 (≈ 26.7 µM)
6 | O=C(/C=C/c1cccc(O)c1)c1ccc(NS(=O)(=O)c2cccc(O)c2)cc1 [Compound 16, 4′-(m-hydroxybenzenesulfonylamino)-3-hydroxychalcone] | 47 (≈ 119 µM) | 33 (≈ 83.5 µM) | 37 (≈ 93.6 µM)
7 | Cc1ccc(S(=O)(=O)Nc2cccc(C(=O)/C=C/c3ccc(O)cc3)c2)cc1 [Compound 4, 3′-(p-toluenesulfonylamino)-4-hydroxychalcone] | 37 (≈ 94 µM) | 34 (≈ 86.4 µM) | 38 (≈ 96.6 µM)
8 | O=C(/C=C/c1ccc(O)cc1)c1ccc(NS(=O)(=O)c2cccc(O)c2)cc1 [Compound 15, 4′-(m-hydroxybenzenesulfonylamino)-4-hydroxychalcone] | 41 (≈ 104 µM) | 43 (≈ 109 µM) | 33 (≈ 83.5 µM)
9 | CS(=O)(=O)Nc1ccc(C(=O)/C=C/c2ccc(O)cc2)cc1 [Compound 34, 4′-(methanesulfonylamino)-4-hydroxychalcone] | 64 (≈ 202 µM) | 74 (≈ 233 µM) | 54 (≈ 170 µM)
10 | O=C(/C=C/c1ccc(O)cc1)c1ccc(NS(=O)(=O)c2ccc(O)cc2)cc1 [Compound 6, 4′-(p-hydroxybenzenesulfonylamino)-4-hydroxychalcone] | 33 (≈ 83.5 µM) | 41 (≈ 104 µM) | 37 (≈ 93.6 µM)
11 | O=C(/C=C/c1ccccc1O)c1ccccc1NS(=O)(=O)c1cccc(O)c1 [Compound 23, 2′-(m-hydroxybenzenesulfonylamino)-2-hydroxychalcone] | 37 (≈ 93.6 µM) | 31 (≈ 78.4 µM) | 35 (≈ 88.5 µM)
12 | O=C(/C=C/c1ccc(O)cc1)c1ccc(OS(=O)(=O)c2ccc([N+](=O)[O-])cc2)cc1 [Compound 38, 4′-(p-nitrobenzenesulfonate)-4-hydroxychalcone] | 47 (≈ 110 µM) | 57 (≈ 134 µM) | 52 (≈ 122 µM)
13 | O=C(/C=C/c1ccc(O)c(O)c1)c1ccccc1NS(=O)(=O)c1ccc(O)cc1 [Compound 56, 2′-(p-hydroxybenzenesulfonylamino)-3,4-dihydroxychalcone] | 6 (≈ 14.6 µM) | 3 (≈ 7.29 µM) | 5 (≈ 12.2 µM)
14 | O=C(/C=C/c1cccc(O)c1O)c1ccc(NS(=O)(=O)c2cccc(O)c2)cc1 [Compound 61, 4′-(m-hydroxybenzenesulfonylamino)-2,3-dihydroxychalcone] | 10 (≈ 24.3 µM) | 10 (≈ 24.3 µM) | 12 (≈ 29.2 µM)
15 | O=C(/C=C/c1cccc(O)c1)c1ccccc1NS(=O)(=O)c1ccc(O)cc1 [Compound 13, 2′-(p-hydroxybenzenesulfonylamino)-3-hydroxychalcone] | 41 (≈ 104 µM) | 36 (≈ 91 µM) | 38 (≈ 96.1 µM)
16 | O=C(/C=C/c1ccc(O)cc1)c1ccc(NS(=O)(=O)c2ccccc2[N+](=O)[O-])cc1 [Compound 29, 4′-(o-nitrobenzensulfonylamino)-4-hydroxychalcone] | 21 (≈ 49.5 µM) | 37 (≈ 87.2 µM) | 29 (≈ 68.3 µM)
17 | O=C(/C=C/c1ccc(O)cc1)c1ccc(OS(=O)(=O)c2ccc(F)cc2)cc1 [Compound 36, 4′-(p-fluorobenzenesulfonate)-4-hydroxychalcone] | 39 (≈ 97.9 µM) | 41 (≈ 103 µM) | 48 (≈ 120 µM)
18 | O=C(/C=C/c1cccc(O)c1O)c1cccc(NS(=O)(=O)c2ccc(O)cc2)c1 [Compound 53, 3′-(p-hydroxybenzenesulfonylamino)-2,3-dihydroxychalcone] | 8 (≈ 19.4 µM) | 7 (≈ 17 µM) | 8 (≈ 19.4 µM)

Row | SMILES | IC50 [1] [µg/mL] | IC50 [2] [µg/mL] | IC50 [3] [µg/mL]
19 | O=C(/C=C/c1ccc(O)cc1)c1ccc(NS(=O)(=O)c2ccc(F)cc2)cc1 [Compound 24, 4′-(p-fluorobenzensulfonylamino)-4-hydroxychalcone] | 51 (≈ 128 µM) | 50 (≈ 126 µM) | 55 (≈ 138 µM)
20 | Nc1cccc(S(=O)(=O)Nc2ccc(C(=O)/C=C/c3ccc(O)c(O)c3)cc2)c1 [Compound 79, 4′-(m-aminobenzensulfonylamino)-3,4-dihydroxychalcone] | 15 (≈ 36.5 µM) | 8 (≈ 19.5 µM) | 7 (≈ 17.1 µM)
21 | O=C(/C=C/c1ccc(O)cc1O)c1ccc(NS(=O)(=O)c2ccc(O)cc2)cc1 [Compound 50, 4′-(p-hydroxybenzenesulfonylamino)-2,4-dihydroxychalcone] | 9 (≈ 21.9 µM) | 10 (≈ 24.3 µM) | 9 (≈ 21.9 µM)
22 | O=C(/C=C/c1ccc(O)c(O)c1)c1ccc(OS(=O)(=O)c2ccc(O)cc2)cc1 [Compound 90, 4′-(p-hydroxybenzenesulfonate)-3,4-dihydroxychalcone] | 8 (≈ 19.4 µM) | 4 (≈ 9.7 µM) | 6 (≈ 14.5 µM)
23 | Cc1ccc(S(=O)(=O)Nc2ccc(C(=O)/C=C/c3ccc(O)c(O)c3)cc2)cc1 [Compound 42, 4′-(p-toluenesulfonylamino)-3,4-dihydroxychalcone] | 18 (≈ 44 µM) | 10 (≈ 24.4 µM) | 7 (≈ 17.1 µM)
24 | O=C(/C=C/c1cccc(O)c1)c1cccc(NS(=O)(=O)c2ccc(O)cc2)c1 [Compound 10, 3′-(p-hydroxybenzenesulfonylamino)-3-hydroxychalcone] | 32 (≈ 80.9 µM) | 30 (≈ 75.9 µM) | 30 (≈ 75.9 µM)
25 | O=C(/C=C/c1ccccc1O)c1ccc(OS(=O)(=O)c2cccc(O)c2)cc1 [Compound 89, 4′-(m-hydroxybenzenesulfonate)-2-hydroxychalcone] | 33 (≈ 83.2 µM) | 37 (≈ 93.3 µM) | 24 (≈ 60.5 µM)
26 | O=C(/C=C/c1ccc(O)cc1)c1ccc(NS(=O)(=O)c2ccccc2)cc1 [Compound 33, 4′-(benzensulfonylamino)-4-hydroxychalcone] | 42 (≈ 111 µM) | 45 (≈ 119 µM) | 47 (≈ 124 µM)
27 | O=C(/C=C/c1cccc(O)c1O)c1ccc(OS(=O)(=O)c2ccc(O)cc2)cc1 [Compound 91, 4′-(p-hydroxybenzenesulfonate)-2,3-dihydroxychalcone] | 14 (≈ 33.9 µM) | 10 (≈ 24.2 µM) | 7 (≈ 17 µM)
28 | O=C(/C=C/c1ccc(O)c(O)c1)c1cccc(NS(=O)(=O)c2cccc(O)c2)c1 [Compound 64, 3′-(m-hydroxybenzenesulfonylamino)-3,4-dihydroxychalcone] | 7 (≈ 17 µM) | 3 (≈ 7.29 µM) | 4 (≈ 9.72 µM)
29 | Cc1ccc(S(=O)(=O)Oc2ccc(C(=O)/C=C/c3ccc(O)cc3)cc2)cc1 [Compound 35, 4′-(p-toluenesulfonate)-4-hydroxychalcone] | 57 (≈ 145 µM) | 47 (≈ 119 µM) | 51 (≈ 129 µM)
30 | O=C(/C=C/c1ccc(O)c(O)c1)c1ccc(NS(=O)(=O)c2ccccc2[N+](=O)[O-])cc1 [Compound 77, 4′-(o-nitrobenzensulfonylamino)-3,4-dihydroxychalcone] | 12 (≈ 27.2 µM) | 11 (≈ 25 µM) | 10 (≈ 22.7 µM)
31 | Nc1cccc(S(=O)(=O)Nc2ccc(C(=O)/C=C/c3ccc(O)cc3)cc2)c1 [Compound 31, 4′-(m-aminobenzensulfonylamino)-4-hydroxychalcone] | 27 (≈ 68.4 µM) | 34 (≈ 86.2 µM) | 24 (≈ 60.8 µM)
32 | O=C(/C=C/c1ccc(O)c(O)c1)c1ccc(NS(=O)(=O)c2ccccc2F)cc1 [Compound 74, 4′-(o-fluorobenzensulfonylamino)-3,4-dihydroxychalcone] | 14 (≈ 33.9 µM) | 11 (≈ 26.6 µM) | 8 (≈ 19.4 µM)
33 | O=C(/C=C/c1cccc(O)c1)c1cccc(NS(=O)(=O)c2cccc(O)c2)c1 [Compound 19, 3′-(m-hydroxybenzenesulfonylamino)-3-hydroxychalcone] | 53 (≈ 134 µM) | 47 (≈ 119 µM) | 38 (≈ 96.1 µM)
34 | O=C(/C=C/c1ccc(O)cc1)c1ccccc1NS(=O)(=O)c1cccc(O)c1 [Compound 21, 2′-(m-hydroxybenzenesulfonylamino)-4-hydroxychalcone] | 43 (≈ 109 µM) | 39 (≈ 98.6 µM) | 31 (≈ 78.4 µM)
35 | O=C(/C=C/c1cc(O)ccc1O)c1ccc(NS(=O)(=O)c2cccc(O)c2)cc1 [Compound 63, 4′-(m-hydroxybenzenesulfonylamino)-2,5-dihydroxychalcone] | 14 (≈ 34 µM) | 10 (≈ 24.3 µM) | 8 (≈ 19.4 µM)
